Measured values: patent publication US10501481B2, “Heterocyclic compounds and their use in preventing or treating bacterial infections” (priority 2015, dated 2019)

Tests used:
[1] = tested on: K. pneumoniae BAA-1898 (TEM-1, SHV-11, SHV-12, KPC-2); assay: microbe, parasite or virus in culture; type: cell-based; conditions: for MIC: Klebsiella pneumoniae, BAA1898, read-out: MIC compounds of the invention alone; for MIC of CAZ in combination with compound at 4 μg/mL: strain BAA-1898, compound fixed at 4 μg/mL
OXA-48 = biological target: T1, OXA-48 (Klebsiella pneumoniae, UniProt Q6XEC0); assay: β-lactamase inhibitory activity, nitrocefin hydrolysis; type: biochemical
T1 construct: made in house; host or cells: E. coli
T1 sequence (Q6XEC0 23-265 limits assumed): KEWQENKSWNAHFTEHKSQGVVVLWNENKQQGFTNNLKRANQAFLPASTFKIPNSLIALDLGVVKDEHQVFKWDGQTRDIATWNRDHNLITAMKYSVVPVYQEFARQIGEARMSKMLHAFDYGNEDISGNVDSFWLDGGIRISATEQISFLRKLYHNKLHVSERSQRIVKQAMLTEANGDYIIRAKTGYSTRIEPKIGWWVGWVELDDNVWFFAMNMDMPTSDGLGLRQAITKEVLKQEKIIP
Protocol: (§1) Enzyme activity was monitored by spectrophotometric measurement of nitrocefin (NCF-TOKU-E, N005) hydrolysis at 485 nm, at room temperature and in assay buffer A: 100 mM Phosphate pH7, 2% glycerol and 0.1 mg/mL Bovine serum albumin (Sigma, B4287). […] To a transparent polystyrene plate (Corning, 3628) were added in each well 5 μL DMSO or inhibitor dilutions in DMSO and 80 μL enzyme in buffer A. Plates were immediately read at 485 nm in a microplate spectrophotometer (BioTek, PowerWave HT) to enable background subtraction. After 30 min of pre-incubation at room temperature, 15 μL of NCF (200 μM final) were finally added in each well. Final enzyme concentrations were 0.1 nM (TEM-1), 0.075 nM (SHV-1), 0.4 nM (CTX-M-15), 1 nM (KPC-2), 0.2 nM (P99 AmpC), 0.2 nM (CMY-37), 0.4 nM (AmpC P. aeruginosa), 0.2 nM (OXA-1), 1.2 nM (OXA-11), 0.4 nM (OXA-15) and 0.3 nM (OXA-48). After 20 min incubation at room temperature, plates were once again read at 485 nm. Enzyme activity was obtained by subtracting the final signal by the background, and was converted to enzyme inhibition using non inhibited wells. IC50 curves were fitted to a classical Langmuir equilibrium model with Hill slope using XLFIT (IDBS).

[2] = tested on: K. pneumoniae UFR77 (CMY-2); assay: MIC broth microdilution, alone and synergy with ceftazidime; conditions: for MIC: Klebsiella pneumoniae, read-out: MIC compounds of the invention alone; for MIC of CAZ in combination with compound at 4 μg/mL: strain UFR77, compound fixed at 4 μg/mL
[3] = tested on: K. pneumoniae UFR68 (TEM-1, SHV-11, CTX-M-15, KPC-3); assay: as above; conditions: for MIC of CAZ in combination with compound at 4 μg/mL: strain UFR68, compound fixed at 4 μg/mL
[4] = tested on: C. murliniae 210102 (VIM-4); assay: as above; conditions: for MIC: read-out: MIC compounds of the invention alone; for MIC of CAZ in combination with compound at 4 μg/mL: strain 210102, compound fixed at 4 μg/mL
[5] = tested on: E. coli 131119 (TEM-1, OXA-48); assay: as above; conditions: for MIC of CAZ in combination with compound at 4 μg/mL: strain 131119, compound fixed at 4 μg/mL
[6] = tested on: E. coli UFR74 (SHV-1, DHA-1); assay: as above; conditions: for MIC: Escherichia coli, read-out: MIC compounds of the invention alone; for MIC of CAZ in combination with compound at 4 μg/mL: strain UFR74, compound fixed at 4 μg/mL
[7] = tested on: E. coli UFR52 (TEM-1, SHV-12, IMP-8); assay: as above; conditions: for MIC: Escherichia coli, read-out: MIC compounds of the invention alone; for MIC of CAZ in combination with compound at 4 μg/mL: strain UFR52, compound fixed at 4 μg/mL
[8] = tested on: E. coli UFR32 (TEM-1, VEB-1, OXA-10); assay: as above; conditions: for MIC of CAZ in combination with compound at 4 μg/mL: strain UFR32, compound fixed at 4 μg/mL
[9] = tested on: K. pneumoniae 160143 (TEM-1, SHV-1, CTX-M-15, KPC-2, OXA-1); assay: as above; conditions: for MIC of CAZ in combination with compound at 4 μg/mL: strain 160143, compound fixed at 4 μg/mL
SHV-1 = biological target: T2, SHV-1 (Klebsiella pneumoniae, UniProt P0AD64); assay: β-lactamase inhibitory activity, nitrocefin hydrolysis; type: biochemical
T2 construct: made in house; host or cells: E. coli
T2 sequence (P0AD64 22-286): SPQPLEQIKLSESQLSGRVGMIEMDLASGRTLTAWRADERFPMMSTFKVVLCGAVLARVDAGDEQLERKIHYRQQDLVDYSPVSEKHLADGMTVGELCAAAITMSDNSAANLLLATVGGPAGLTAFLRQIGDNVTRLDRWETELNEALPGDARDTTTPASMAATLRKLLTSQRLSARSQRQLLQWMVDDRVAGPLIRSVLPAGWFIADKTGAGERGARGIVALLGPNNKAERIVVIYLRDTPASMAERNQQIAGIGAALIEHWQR
Protocol: as §1

[10] = tested on: E. coli UFR61O (TEM-1, KPC-2); assay: MIC broth microdilution, alone and synergy with ceftazidime; conditions: for MIC of CAZ in combination with compound at 4 μg/mL: strain UFR61O, compound fixed at 4 μg/mL
[11] = tested on: E. cloacae UFR38 (CTX-M-15, NDM-1); assay: as above; conditions: for MIC: Enterobacter cloacae, read-out: MIC compounds of the invention alone; for MIC of CAZ in combination with compound at 4 μg/mL: strain UFR38, compound fixed at 4 μg/mL
OXA-15 = biological target: T3, OXA-15 (Pseudomonas aeruginosa, UniProt Q51574); assay: β-lactamase inhibitory activity, nitrocefin hydrolysis; type: biochemical
T3 construct: made in house; host or cells: E. coli
T3 sequence (Q51574 22-275): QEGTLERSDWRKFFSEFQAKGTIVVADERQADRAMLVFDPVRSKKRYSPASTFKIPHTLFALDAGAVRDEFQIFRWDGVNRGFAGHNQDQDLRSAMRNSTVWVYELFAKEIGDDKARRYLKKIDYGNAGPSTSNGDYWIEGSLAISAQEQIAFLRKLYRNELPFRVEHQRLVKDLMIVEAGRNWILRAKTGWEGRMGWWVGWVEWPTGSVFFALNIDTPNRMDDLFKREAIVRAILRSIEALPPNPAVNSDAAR
Protocol: as §1

[12] = tested on: E. cloacae UFR85 (TEM-1, CTX-M-15, derepressed AmpC); assay: MIC broth microdilution, alone and synergy with ceftazidime; conditions: for MIC of CAZ in combination with compound at 4 μg/mL: strain UFR85, compound fixed at 4 μg/mL
[13] = tested on: E. coli UFR18 (CTX-M-15, OXA-204); assay: as above; conditions: for MIC: Escherichia coli, read-out: MIC compounds of the invention alone; for MIC of CAZ in combination with compound at 4 μg/mL: strain UFR18, compound fixed at 4 μg/mL
[14] = tested on: E. cloacae UFR70 (TEM-1, CTX-M-15, CMY-2, OXA-1, Porin loss); assay: as above; conditions: for MIC: Enterobacter cloacae, read-out: MIC compounds of the invention alone; for MIC of CAZ in combination with compound at 4 μg/mL: strain UFR70, compound fixed at 4 μg/mL
[15] = tested on: P. aeruginosa CIP107051 (TEM-24); assay: as above; conditions: for MIC: Pseudomonas aeruginosa, CIP107051, read-out: MIC compounds of the invention alone; for MIC of CAZ in combination with compound at 4 μg/mL: strain CIP107051, compound fixed at 4 μg/mL
[16] = tested on: K. pneumoniae 200047 (TEM-1, SHV-32, CTX-M-15, OXA-1); assay: as above; conditions: for MIC: Klebsiella pneumoniae, read-out: MIC compounds of the invention alone; for MIC of CAZ in combination with compound at 4 μg/mL: strain 200047, compound fixed at 4 μg/mL
TEM-1 = biological target: T4, TEM-1 (Escherichia coli, UniProt P62593); assay: β-lactamase inhibitory activity, nitrocefin hydrolysis; type: biochemical; conditions: class (A); 30 min pre-incubation; nitrocefin 200 μM
T4 construct: made in house; host or cells: E. coli
T4 sequence (P62593 24-286 limits assumed): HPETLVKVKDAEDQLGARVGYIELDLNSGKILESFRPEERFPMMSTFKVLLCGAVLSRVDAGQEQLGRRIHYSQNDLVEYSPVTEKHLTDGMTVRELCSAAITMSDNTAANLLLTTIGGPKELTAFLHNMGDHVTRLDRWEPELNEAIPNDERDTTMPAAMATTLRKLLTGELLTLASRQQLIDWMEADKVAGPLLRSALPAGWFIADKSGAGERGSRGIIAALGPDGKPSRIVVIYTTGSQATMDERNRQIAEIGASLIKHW
Protocol: as §1

OXA-11 = biological target: T5, OXA-11 (Pseudomonas aeruginosa, UniProt Q06778); assay: as above; type: biochemical
T5 construct: made in house; host or cells: E. coli
T5 sequence (Q06778 21-266): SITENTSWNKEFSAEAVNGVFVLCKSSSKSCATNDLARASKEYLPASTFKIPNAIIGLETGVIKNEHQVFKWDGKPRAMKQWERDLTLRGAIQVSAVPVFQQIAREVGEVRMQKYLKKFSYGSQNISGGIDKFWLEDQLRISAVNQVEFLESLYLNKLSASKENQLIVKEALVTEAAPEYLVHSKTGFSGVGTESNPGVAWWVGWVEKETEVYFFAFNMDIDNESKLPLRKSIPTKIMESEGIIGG
Protocol: as §1

[17] = tested on: P. aeruginosa CIP105250 (OXA-15); assay: MIC broth microdilution, compounds alone; conditions: Pseudomonas aeruginosa, CIP105250, read-out: MIC compounds of the invention alone
AmpC P. aeruginosa = AmpC P. aeruginosa (Pseudomonas aeruginosa, UniProt P24735); assay: biochemical
Sequence of AmpC P. aeruginosa (P24735 27-397): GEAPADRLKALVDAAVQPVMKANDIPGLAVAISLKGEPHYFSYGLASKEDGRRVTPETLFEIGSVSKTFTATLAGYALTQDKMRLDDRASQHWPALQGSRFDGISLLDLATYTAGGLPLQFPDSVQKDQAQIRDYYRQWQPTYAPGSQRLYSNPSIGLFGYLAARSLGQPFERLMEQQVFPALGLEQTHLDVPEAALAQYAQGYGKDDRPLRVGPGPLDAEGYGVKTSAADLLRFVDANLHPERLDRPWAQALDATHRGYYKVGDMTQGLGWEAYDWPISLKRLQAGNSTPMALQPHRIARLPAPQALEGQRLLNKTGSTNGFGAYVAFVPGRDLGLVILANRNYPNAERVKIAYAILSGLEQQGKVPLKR
Protocol: Enzyme activity was monitored by spectrophotometric measurement of nitrocefin (NCF-TOKU-E, N005) hydrolysis at 485 nm, at room temperature and in assay buffer A: 100 mM Phosphate pH7, 2% glycerol and 0.1 mg/mL Bovine serum albumin (Sigma, B4287). Enzymes were cloned in E. coli expression vector, expressed and purified in house using classical procedures. To a transparent polystyrene plate (Corning, 3628) were added in each well 5 μL DMSO or inhibitor dilutions in DMSO and 80 μL enzyme in buffer A. Plates were immediately read at 485 nm in a microplate spectrophotometer (BioTek, PowerWave HT) to enable background subtraction. After 30 min of pre-incubation at room temperature, 15 μL of NCF (200 μM final) were finally added in each well. Final enzyme concentrations were 0.1 nM (TEM-1), 0.075 nM (SHV-1), 0.4 nM (CTX-M-15), 1 nM (KPC-2), 0.2 nM (P99 AmpC), 0.2 nM (CMY-37), 0.4 nM (AmpC P. aeruginosa), 0.2 nM (OXA-1), 1.2 nM (OXA-11), 0.4 nM (OXA-15) and 0.3 nM (OXA-48). After 20 min incubation at room temperature, plates were once again read at 485 nm. Enzyme activity was obtained by subtracting the final signal by the background, and was converted to enzyme inhibition using non inhibited wells. IC50 curves were fitted to a classical Langmuir equilibrium model with Hill slope using XLFIT (IDBS).

[18] = Escherichia coli, read-out: MIC compounds of the invention alone
[19] = Klebsiella pneumoniae, read-out: MIC compounds of the invention alone

| Structure (SMILES) | MIC [1] [µg/mL] | MIC of CAZ in combination with compound at 4 μg/mL [1] [µg/mL] | IC50 (OXA-48) [nM] | MIC [2] [µg/mL] | MIC of CAZ in combination with compound at 4 μg/mL [2] [µg/mL] | MIC of CAZ in combination with compound at 4 μg/mL [3] [µg/mL] | MIC [4] [µg/mL] | MIC of CAZ in combination with compound at 4 μg/mL [4] [µg/mL] | MIC of CAZ in combination with compound at 4 μg/mL [5] [µg/mL] | MIC [6] [µg/mL] | MIC of CAZ in combination with compound at 4 μg/mL [6] [µg/mL] | MIC [7] [µg/mL] | MIC of CAZ in combination with compound at 4 μg/mL [7] [µg/mL] | MIC of CAZ in combination with compound at 4 μg/mL [8] [µg/mL] | MIC of CAZ in combination with compound at 4 μg/mL [9] [µg/mL] | IC50 (SHV-1) [nM] | MIC of CAZ in combination with compound at 4 μg/mL [10] [µg/mL] | MIC [11] [µg/mL] | MIC of CAZ in combination with compound at 4 μg/mL [11] [µg/mL] | IC50 (OXA-15) [nM] | other results |
| --- | --- | --- | --- | --- | --- | --- | --- | --- | --- | --- | --- | --- | --- | --- | --- | --- | --- | --- | --- | --- | --- |
| NCCn1c2c(sc1=O)C1CN(C2)C(=O)N1OS(=O)(=O)[O-].[Na+] (stereo not drawn) [Example 4, Sodium and 2,2,2-trifluoroacetate [5-(2-azaniumethyl)-4,9-dioxo-3-thia-5,8,10-triaza-tricyclo[6.2.1.0^2.6]undec-2(6)-en-10-yl] sulfate] | 16 | ≤0.125 | 4.1 | 16 | ≤0.25 | <0.25 | 4 | <0.25 | <0.25 | 16 | ≤0.25 | 2 | <0.25 | <0.25 | ≤0.25 | 21 | <0.25 | 0.5 | <0.25 | 300 | MIC [5, 18]: 2 µg/mL; MIC [8, 18]: 1 µg/mL; MIC [10, 18]: 4 µg/mL; MIC ([12]; Enterobacter cloacae, read-out: MIC compounds of the invention alone): 2 µg/mL; MIC of CAZ in combination with compound at 4 μg/mL [12]: <0.25 µg/mL; MIC [13]: 0.5 µg/mL; MIC of CAZ in combination with compound at 4 μg/mL [13]: <0.25 µg/mL; MIC [14]: 4 µg/mL; MIC of CAZ in combination with compound at 4 μg/mL [14]: <0.25 µg/mL; MIC [15]: 16 µg/mL; MIC of CAZ in combination with compound at 4 μg/mL [15]: 4 µg/mL; MIC [16]: 8 µg/mL; MIC of CAZ in combination with compound at 4 μg/mL [16]: <0.25 µg/mL; IC50 (TEM-1): 4.6 nM; IC50 (OXA-11): 82 nM; MIC [17]: 8 µg/mL; IC50 (AmpC P. aeruginosa): 1200 nM |
| O=C1N2Cc3c(sc(=O)n3CCO)C(C2)N1OS(=O)(=O)[O-].[Na+] (stereo not drawn) [Example 5, Sodium [5-(2-hydroxyethyl)-4,9-dioxo-3-thia-5,8,10-triaza-tricyclo[6.2.1.0^2.6]undec-2(6)-en-10-yl) sulfate] | 8 | 4 | 0.79 | 4 | <0.25 | ≤0.25 | 8 | 64 | <0.25 | 4 | <0.25 | 0.5 | <0.25 | <0.25 | <0.25 | 6 | <0.25 | 2 | <0.25 | 190 | MIC [3, 19]: 8 µg/mL; MIC [9, 19]: 8 µg/mL; MIC of CAZ in combination with compound at 4 μg/mL [12]: <0.25 µg/mL; MIC [13]: 2 µg/mL; MIC of CAZ in combination with compound at 4 μg/mL [13]: <0.25 µg/mL; MIC [14]: 1 µg/mL; MIC of CAZ in combination with compound at 4 μg/mL [14]: <0.25 µg/mL; MIC [15]: > 32 µg/mL; MIC of CAZ in combination with compound at 4 μg/mL [15]: 4 µg/mL; MIC [16]: 2 µg/mL; MIC of CAZ in combination with compound at 4 μg/mL [16]: <0.25 µg/mL; IC50 (TEM-1): 1.8 nM; IC50 (OXA-11): 31 nM; MIC [17]: > 32 µg/mL; IC50 (AmpC P. aeruginosa): 370 nM |
